In ChEMBL document CHEMBL5579824, “Novel Hsp90-Targeting PROTACs: Enhanced synergy with cisplatin in combination therapy of cervical cancer” (Eur J Med Chem, 2024):
pIC50: −log10 of the molar value. Activity calls are given as the source filed them. No cut-off for these calls is given here.

Legend:
SiHa [1] = assay: Induction of apoptosis in human SiHa cells assessed as early apoptotic cells at 1 uM incubated after 48 hrs by annexin V-FITC/PI staining based flow cytometry (reference value: 2.05 %); format: functional
SiHa [2] = assay: Synergistic antiproliferative activity against human SiHa cells assessed as combination index at 1 uM incubated for 72 hrs in presence of 0.03 uM cisplatin by CCK-8 assay; format: functional
[3] = target: T1, Protein cereblon/Heat shock protein HSP 90-alpha/Heat shock protein HSP 90-beta (Homo sapiens) (UniProt P07900+P08238+Q96SW2); assay: Protac activity at CRBN/Hsp90 in human SiHa cells assessed as induction of Hsp90 degradation at 1 uM incubated for 10 hrs by Western blot analysis; format: cell-based
SiHa [4] = assay: Synergistic antiproliferative activity against human SiHa cells assessed as combination index at 5 uM incubated for 72 hrs in presence of 0.32 uM cisplatin by CCK-8 assay; format: functional
SiHa [5] = assay: Synergistic antiproliferative activity against human SiHa cells assessed as combination index at 0.1 uM incubated for 72 hrs in presence of 3.16 uM cisplatin by CCK-8 assay; format: functional
[6] = target: T1, Protein cereblon/Heat shock protein HSP 90-alpha/Heat shock protein HSP 90-beta (Homo sapiens); assay: Protac activity at CRBN/Hsp90 in human SiHa cells assessed as decrease in HER2 protein expression level at 0.05 uM incubated for 10 hrs by Western blot analysis; format: cell-based
SiHa [7] = assay: Synergistic antiproliferative activity against human SiHa cells assessed as combination index at 10 uM incubated for 72 hrs in presence of 0.32 uM cisplatin by CCK-8 assay; format: functional
SiHa [8] = assay: Induction of apoptosis in human SiHa cells assessed as late apoptotic cells at 10 uM incubated after 48 hrs by annexin V-FITC/PI staining based flow cytometry (reference value: 6.93 %); format: functional
SiHa [9] = assay: Synergistic antiproliferative activity against human SiHa cells assessed as combination index at 0.5 uM incubated for 72 hrs in presence of 0.32 uM cisplatin by CCK-8 assay; format: functional
SiHa [10] = assay: Induction of cell cycle arrest in human SiHa cells assessed as accumulation of cells at G1 pahse at 1 uM incubated after 48 hrs by PI staining based flow cytometry (reference value: 83.90 %); format: functional
SiHa [11] = assay: Induction of apoptosis in human SiHa cells assessed as viable cells at 10 uM incubated after 48 hrs by annexin V-FITC/PI staining based flow cytometry (reference value: 90.4 %); format: functional; conditions: read-out: Activity
SiHa [12] = assay: Induction of cell cycle arrest in human SiHa cells assessed as accumulation of cells at G2/M pahse at 10 uM incubated after 48 hrs by PI staining based flow cytometry (reference value: 7.37 %); format: functional
SiHa [13] = assay: Induction of cell cycle arrest in human SiHa cells assessed as accumulation of cells at S pahse at 10 uM incubated after 48 hrs by PI staining based flow cytometry (reference value: 8.51 %); format: functional
SiHa [14] = assay: Synergistic antitumor activity against human SiHa cells xenografted in BALB/c nude mouse assessed as reduction in Ki67 protein expression at 2 mg/kg, ip co-treated with cisplatin separately for every two days by immunohistochemical analysis; format: functional, organism-based
SiHa [15] = assay: Induction of apoptosis in human SiHa cells assessed as late apoptotic cells at 0.05 uM incubated after 48 hrs by annexin V-FITC/PI staining based flow cytometry (reference value: 6.93 %); format: functional
SiHa [16] = assay: Induction of apoptosis in human SiHa cells assessed as viable cells at 0.05 uM incubated after 48 hrs by annexin V-FITC/PI staining based flow cytometry (reference value: 90.4 %); format: functional; conditions: read-out: Activity
SiHa [17] = assay: Synergistic antiproliferative activity against human SiHa cells assessed as combination index at 0.5 uM incubated for 72 hrs in presence of 1 uM cisplatin by CCK-8 assay; format: functional
SiHa [18] = assay: Antiproliferative activity against human SiHa cells assessed as inhibition of clone formation ability incubated for 14 days by crystal violet staining based microscopic analysis; format: functional, cell-based; conditions: dose 0.01-1 µM, time 14.0 day
SiHa [19] = assay: Induction of cell cycle arrest in human SiHa cells assessed as accumulation of cells at S pahse at 0.05 uM incubated after 48 hrs by PI staining based flow cytometry (reference value: 8.51 %); format: functional
SiHa [20] = assay: Synergistic antitumor activity against human SiHa cells xenografted in BALB/c nude mouse assessed as tumor growth inhibition at 2 mg/kg, ip co-treated with cisplatin separately for every two days; format: functional, organism-based
SiHa [21] = assay: Synergistic antiproliferative activity against human SiHa cells assessed as combination index at 0.05 uM incubated for 72 hrs in presence of 0.03 uM cisplatin by CCK-8 assay; format: functional
SiHa [22] = assay: Synergistic antiproliferative activity against human SiHa cells assessed as combination index at 0.75 uM incubated for 72 hrs in presence of 0.1 uM cisplatin by CCK-8 assay; format: functional
SiHa [23] = assay: Antitumor activity against human SiHa cells xenografted in BALB/c nude mouse assessed as reduction in Ki67 protein expression at 2 mg/kg, ip by immunohistochemical analysis; format: functional, organism-based
SiHa [24] = assay: Synergistic antiproliferative activity against human SiHa cells assessed as combination index at 10 uM incubated for 72 hrs in presence of 3.16 uM cisplatin by CCK-8 assay; format: functional
[25] = target: T1, Protein cereblon/Heat shock protein HSP 90-alpha/Heat shock protein HSP 90-beta (Homo sapiens); assay: Protac activity at CRBN/Hsp90 in human SiHa cells assessed as decrease in AKT protein expression level incubated for 10 hrs by Western blot analysis; format: cell-based; conditions: dose 0.01-1 µM
SiHa [26] = assay: Induction of apoptosis in human SiHa cells assessed as early apoptotic cells at 10 uM incubated after 48 hrs by annexin V-FITC/PI staining based flow cytometry (reference value: 2.05 %); format: functional
SiHa [27] = assay: Induction of apoptosis in human SiHa cells assessed as necrotic cells at 10 uM incubated after 48 hrs by annexin V-FITC/PI staining based flow cytometry (reference value: 0.08 %); format: functional
SiHa [28] = assay: Induction of cell cycle arrest in human SiHa cells assessed as accumulation of cells at G1 pahse at 2.5 uM incubated after 48 hrs by PI staining based flow cytometry (reference value: 83.90 %); format: functional
SiHa [29] = assay: Induction of apoptosis in human SiHa cells assessed as necrotic cells at 2.5 uM incubated after 48 hrs by annexin V-FITC/PI staining based flow cytometry (reference value: 0.08 %); format: functional
HeLa = assay: Antiproliferative activity against human HeLa cells assessed as reduction in cell viability incubated for 72 hrs by CCK-8 assay; format: functional, cell-based
SiHa [30] = assay: Synergistic antiproliferative activity against human SiHa cells assessed as combination index at 5 uM incubated for 72 hrs in presence of 10 uM cisplatin by CCK-8 assay; format: functional
SiHa [31] = assay: Synergistic antiproliferative activity against human SiHa cells assessed as combination index at 1 uM incubated for 72 hrs in presence of 3.16 uM cisplatin by CCK-8 assay; format: functional
SiHa [32] = assay: Synergistic antiproliferative activity against human SiHa cells assessed as combination index at 0.5 uM incubated for 72 hrs in presence of 0.1 uM cisplatin by CCK-8 assay; format: functional
SiHa [33] = assay: Synergistic antiproliferative activity against human SiHa cells assessed as combination index at 0.1 uM incubated for 72 hrs in presence of 0.32 uM cisplatin by CCK-8 assay; format: functional

## CC1(C)CC(=O)c2c(C(F)(F)F)nn(-c3ccc(C(N)=O)c(N[C@H]4CC[C@H](OC(=O)CNC(=O)CCCCCCCNc5cccc6c5CN(C5CCC(=O)NC5=O)C6=O)CC4)c3)c2C1 (some centres undefined)
SiHa [1]
  Activity: 16.5%
SiHa [2]
  CI: 0.22
[3]
  Activity: Active
SiHa [4]
  CI: 0.95
SiHa [5]
  CI: 1.04
[6]
  Activity: Active
SiHa [7]
  CI: 1.89
SiHa [8]
  Activity: 29.96%
SiHa [9]
  CI: 0.12
SiHa [10]
  Activity: 59.32%
SiHa [11]
  viability at 10 µM: 51.9%
SiHa [12]
  Activity: 24.06%
SiHa [13]
  Activity: 13.6%
SiHa [14]
  Activity: Active
SiHa [15]
  Activity: 7.4%
SiHa [16]
  viability at 0.05 µM: 90.1%
SiHa [17]
  CI: 0.13
SiHa [18]
  inhibition: Dose-Dependent Effect
SiHa [19]
  Activity: 10.84%
SiHa [20]
  TGI: Active
SiHa [21]
  CI: 0.3
SiHa [22]
  CI: 0.18
SiHa [23]
  Activity: Active
SiHa [24]
  CI: 1.45
[25]
  Activity: Dose-Dependent Effect
SiHa [26]
  Activity: 20.83%
SiHa [27]
  Activity: 0.27%
SiHa [28]
  Activity: 53.29%
SiHa [29]
  Activity: 0.68%
HeLa
  pIC50: 7.10
SiHa [30]
  CI: 0.51
SiHa [31]
  CI: 0.18
SiHa [32]
  CI: 0.13
SiHa [33]
  CI: 0.45
